In ChEMBL document CHEMBL1909046, “DrugMatrix in vitro pharmacology data”:

Key:
[1] = molecular target: Adenosine receptor A2a (Homo sapiens, UniProt P29274); test: DRUGMATRIX: Adenosine A2A radioligand binding (ligand: […]); assay type: cell membranes, HEK293, Membrane; settings: Not Active = under 50% inhibition at 10 µM
[2] = DRUGMATRIX: Glutamate, Kainate radioligand binding (ligand: [3H] Kainic acid); assay type: cell membranes, Rattus norvegicus, Wistar, Brain, Membrane; settings: Not Active = under 50% inhibition at 10 µM
[3] = molecular target: 5-hydroxytryptamine receptor 1B (Rattus norvegicus, UniProt P28564); assay type: cell membranes, Wistar, Cerebral cortex, Membrane; further: in other assays of this panel Not Active means under 50% inhibition at 10 µM
[4] = DRUGMATRIX: GABAA, Chloride Channel, TBOB radioligand binding (ligand: [3H] TBOB); assay type: cell membranes, Rattus norvegicus, Wistar, Cerebral cortex, Membrane; settings: Not Active = under 50% inhibition at 10 µM
[5] = molecular target: 5-hydroxytryptamine receptor 6 (Homo sapiens, UniProt P50406); assay type: cell membranes, HeLa, Membrane; further: in other assays of this panel Not Active means under 50% inhibition at 10 µM
[6] = molecular target: Aldo-keto reductase family 1 member B1 (Rattus norvegicus, UniProt P07943); assay type: tissue-based, Lens of camera-type eye;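 further: inhibition of aldose reductase enzyme activity, measured with DL-glyceraldehyde as the substrate; in other assays of this panel Not Active means under 50% inhibition at 10 µM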

Sequence of 5-hydroxytryptamine receptor 1B (P28564 whole entry): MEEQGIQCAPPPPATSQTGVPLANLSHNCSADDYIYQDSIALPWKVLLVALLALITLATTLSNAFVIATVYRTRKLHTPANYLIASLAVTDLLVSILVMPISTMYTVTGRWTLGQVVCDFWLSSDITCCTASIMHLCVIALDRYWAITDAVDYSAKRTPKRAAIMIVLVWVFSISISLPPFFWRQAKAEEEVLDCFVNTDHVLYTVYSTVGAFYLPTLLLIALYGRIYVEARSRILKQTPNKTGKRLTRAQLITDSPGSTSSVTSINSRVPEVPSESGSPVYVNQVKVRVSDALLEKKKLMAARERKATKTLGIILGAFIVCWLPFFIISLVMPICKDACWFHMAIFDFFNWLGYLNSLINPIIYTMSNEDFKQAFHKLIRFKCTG
Sequence of Adenosine receptor A2a (P29274 whole entry): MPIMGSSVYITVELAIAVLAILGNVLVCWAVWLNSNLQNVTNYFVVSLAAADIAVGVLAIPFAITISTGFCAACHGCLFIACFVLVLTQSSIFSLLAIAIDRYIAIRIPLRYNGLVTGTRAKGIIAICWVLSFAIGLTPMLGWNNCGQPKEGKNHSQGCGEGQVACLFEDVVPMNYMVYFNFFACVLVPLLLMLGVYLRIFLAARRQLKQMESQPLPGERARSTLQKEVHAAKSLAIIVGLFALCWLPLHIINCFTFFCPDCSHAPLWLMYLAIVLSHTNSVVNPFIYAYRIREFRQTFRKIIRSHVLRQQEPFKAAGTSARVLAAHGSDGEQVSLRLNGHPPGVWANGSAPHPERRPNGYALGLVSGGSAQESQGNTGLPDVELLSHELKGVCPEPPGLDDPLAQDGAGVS
Sequence of 5-hydroxytryptamine receptor 6 (P50406 whole entry): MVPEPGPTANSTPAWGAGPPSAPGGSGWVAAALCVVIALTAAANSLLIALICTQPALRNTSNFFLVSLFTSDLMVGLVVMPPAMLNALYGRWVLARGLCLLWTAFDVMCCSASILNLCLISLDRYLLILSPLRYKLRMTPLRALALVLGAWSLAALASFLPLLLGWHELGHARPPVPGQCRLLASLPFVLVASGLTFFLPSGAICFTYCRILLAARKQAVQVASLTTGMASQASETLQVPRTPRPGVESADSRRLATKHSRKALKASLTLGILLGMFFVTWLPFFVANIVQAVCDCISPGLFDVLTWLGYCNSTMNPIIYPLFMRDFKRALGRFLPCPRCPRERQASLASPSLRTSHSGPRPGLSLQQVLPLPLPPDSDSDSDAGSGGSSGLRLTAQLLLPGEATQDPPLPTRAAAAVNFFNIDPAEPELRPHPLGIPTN

Compound	IC50 ([1]; hek293)	IC50 [2]	Ki [2]	IC50 [3]	IC50 [4]	Ki [4]	IC50 ([5]; hela)	IC50 [6]	IC50 ([1]; read-out: IC50)	Ki ([1]; read-out: Ki)	Ki ([1]; hek293)	Ki [3]	Ki ([5]; hela)	Ki [6]	IC50 ([3]; read-out: IC50)	Ki ([3]; read-out: Ki)	IC50 ([5]; read-out: IC50)	Ki ([5]; read-out: Ki)
COc1ccc(C2C(=O)c3ccccc3C2=O)cc1 [ANISINDIONE]	Not Active	Not Active	Not Active	Not Active	Not Active	Not Active	Not Active	Not Active	–	–	–	–	–	–	–	–	–	–
COC(=O)Nc1nc2ccc([S+]([O-])c3ccccc3)cc2[nH]1 (stereo unspecified) [OXFENDAZOLE]	–	Not Active	Not Active	Not Active	Not Active	Not Active	Not Active	Not Active	1500 nM	844 nM	–	–	–	–	–	–	–	–
CC(C(=O)O)c1ccc2oc(-c3ccc(Cl)cc3)nc2c1 (stereo unspecified) [BENOXAPROFEN]	Not Active	Not Active	Not Active	Not Active	Not Active	Not Active	Not Active	Not Active	–	–	–	–	–	–	–	–	–	–
Cc1cc2c(OCC(CNC(C)(C)C)OC(=O)c3ccccc3)cccc2[nH]1 (stereo unspecified) [BOPINDOLOL]	Not Active	Not Active	Not Active	Not Active	Not Active	Not Active	Not Active	Not Active	–	–	–	–	–	–	–	–	–	–
Nc1ccn([C@@H]2O[C@H](CO)[C@@H](O)C2(F)F)c(=O)n1 [GEMCITABINE]	Not Active	Not Active	Not Active	Not Active	Not Active	Not Active	Not Active	Not Active	–	–	–	–	–	–	–	–	–	–
COc1ccc2[nH]cc(CCNC(C)=O)c2c1 [MELATONIN]	Not Active	Not Active	Not Active	Not Active	Not Active	Not Active	Not Active	Not Active	–	–	–	–	–	–	–	–	–	–
GADOPENTETATE DIMEGLUMINE	Not Active	Not Active	Not Active	Not Active	Not Active	Not Active	Not Active	Not Active	–	–	Not Active	Not Active	Not Active	Not Active	–	–	–	–
C#CC1(O)CC[C@H]2[C@@H]3CCC4=CC(=O)CC[C@@H]4[C@H]3CC[C@@]21CC (stereo partly specified) [NORGESTREL]	Not Active	Not Active	Not Active	Not Active	Not Active	Not Active	Not Active	Not Active	–	–	–	–	–	–	–	–	–	–
C[n+]1ccc(-c2cc[n+](C)cc2)cc1.[Cl-].[Cl-] [PARAQUAT DICHLORIDE]	Not Active	Not Active	Not Active	Not Active	Not Active	Not Active	Not Active	Not Active	–	–	–	–	–	–	–	–	–	–
C[C@@H]1CC[C@@]2(OC1)O[C@H]1[C@@H](O)[C@H]3[C@@H]4CC[C@H]5C[C@@H](O[C@@H]6O[C@H](CO)[C@H](O[C@@H]7O[C@H](CO)C(O)[C@H](O[C@@H]8OC[C@@H](O)[C@H](O)[C@H]8O)[C@H]7O[C@@H]7O[C@H](CO)[C@H](O)[C@H](O[C@@H]8O[C@H](CO)[C@@H](O)[C@H](O)[C@H]8O)[C@H]7O)[C@H](O)[C@H]6O)[C@H](O)C[C@]5(C)[C@H]4CC[C@]3(C)[C@H]1[C@@H]2C (stereo partly specified) [DIGITONIN]	Not Active	Not Active	Not Active	Not Active	Not Active	Not Active	Not Active	Not Active	–	–	–	–	–	–	–	–	–	–
Oc1c(Cl)cc(Cl)c(Cl)c1Cc1c(O)c(Cl)cc(Cl)c1Cl [HEXACHLOROPHENE]	–	Not Active	Not Active	Not Active	Not Active	Not Active	Not Active	Not Active	1610 nM	906 nM	–	–	–	–	–	–	–	–
O=C1CN=C(c2ccccc2Cl)c2cc([N+](=O)[O-])ccc2N1 [CLONAZEPAM]	Not Active	Not Active	Not Active	Not Active	Not Active	Not Active	Not Active	Not Active	–	–	–	–	–	–	–	–	–	–
C[C@@H](CO)NC(=O)[C@@H]1C=C2c3cccc4[nH]cc(c34)C[C@H]2N(C)C1 [ERGONOVINE]	Not Active	Not Active	Not Active	–	Not Active	Not Active	–	Not Active	–	–	–	–	–	–	2.85 nM	1.29 nM	3.24 nM	1.5 nM
CCn1cc(C(=O)O)c(=O)c2cnc(N3CCCC3)nc21 [PIROMIDIC ACID]	Not Active	Not Active	Not Active	Not Active	Not Active	Not Active	Not Active	Not Active	–	–	–	–	–	–	–	–	–	–
C[C@@H]1C[C@H]2[C@@H]3CCC4=CC(=O)C=C[C@]4(C)[C@@]3(F)[C@@H](O)C[C@]2(C)[C@H]1C(=O)CO [DESOXIMETASONE]	Not Active	Not Active	Not Active	Not Active	Not Active	Not Active	Not Active	Not Active	–	–	–	–	–	–	–	–	–	–
CN(C)CC[C@@H](c1ccc(Cl)cc1)c1ccccn1 [DEXCHLORPHENIRAMINE]	Not Active	Not Active	Not Active	Not Active	Not Active	Not Active	Not Active	Not Active	–	–	–	–	–	–	–	–	–	–
